According to patent US9434763B2, “Derivatives of pyridinone as inhibitors for tissue transglutaminase” (ZEDIRA GMBH, priority 2012, dated 2016):

Assays:
TG1 (transglutaminase 1) = molecular target: T1, TG1 (transglutaminase 1) (Homo sapiens, UniProt P22735); assay: Comparative transglutaminase selectivity assay with casein and dansylcadaverine as substrates: TG1; assay type: biochemical; settings: casein as substrate
T1 construct: purchased Zedira T009
T1 sequence (P22735 1-817): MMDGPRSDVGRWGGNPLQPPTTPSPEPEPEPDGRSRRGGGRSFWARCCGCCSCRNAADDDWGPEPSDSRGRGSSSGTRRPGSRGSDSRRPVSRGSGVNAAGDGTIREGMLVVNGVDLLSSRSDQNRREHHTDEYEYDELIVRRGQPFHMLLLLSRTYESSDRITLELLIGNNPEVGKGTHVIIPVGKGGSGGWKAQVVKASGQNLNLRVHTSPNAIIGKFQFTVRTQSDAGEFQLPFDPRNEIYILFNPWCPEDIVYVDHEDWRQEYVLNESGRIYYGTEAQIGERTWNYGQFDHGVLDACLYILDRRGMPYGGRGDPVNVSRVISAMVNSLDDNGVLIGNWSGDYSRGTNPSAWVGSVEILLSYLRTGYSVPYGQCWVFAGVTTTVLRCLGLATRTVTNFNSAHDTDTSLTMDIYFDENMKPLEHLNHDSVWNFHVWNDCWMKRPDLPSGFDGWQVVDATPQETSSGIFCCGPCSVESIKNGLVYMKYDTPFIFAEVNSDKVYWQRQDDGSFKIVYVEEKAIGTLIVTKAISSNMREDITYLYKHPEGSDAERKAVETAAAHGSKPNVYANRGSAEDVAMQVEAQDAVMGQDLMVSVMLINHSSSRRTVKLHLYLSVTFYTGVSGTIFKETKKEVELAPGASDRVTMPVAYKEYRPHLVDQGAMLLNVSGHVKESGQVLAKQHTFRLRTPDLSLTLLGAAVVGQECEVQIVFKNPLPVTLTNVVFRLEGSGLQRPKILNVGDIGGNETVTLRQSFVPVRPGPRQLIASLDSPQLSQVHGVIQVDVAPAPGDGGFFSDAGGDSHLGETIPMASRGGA
Text: The comparative determination of different transglutaminases to determine the selectivity was made with casein and dansylcadaverine as substrates. Therefore, the kit T036 (Zedira, Darmstadt; Refs: Lorand et al, Anal Biochem, 1971, 44:221-31) as well as transglutaminase products T009 (transglutaminase 1), T012 (transglutaminase 3), T021 (transglutaminase 6) and T027 (plasma transglutaminase, factor XIII) are used. Therefore, two different IC50 values for the compounds are given.
The evaluation of the resulting enzyme activity is done using the slope of the straight line obtained by the increase in fluorescence.
To determine the non-inhibited enzyme activity, DMSO instead of inhibitor stock solution is used. IC50 values are determined by plotting the resulting enzyme activity against the logarithm of the inhibitor concentration. IC50 is defined as the concentration of inhibitor resulting in 50% of enzyme activity.
It should be noted that it was measured here against casein as substrate, which is why other apparent inhibition values (IC50 value) result.

[1] = test system: Huh 7 (human hepatome-cell line); assay: Cytotoxicity: metabolic activity, EZ4U-Assay, Huh 7; assay type: cell-based
Procedure: (§1) Huh 7 (human hepatome-cell line) and CaCo2 (human colon carcinoma-cell line) were seeded to 96 well plates in Dulbecco's Modified Eagle's Medium (DMEM)/10% fetal calf serum (FCS) and cultivated. The method is known to the skilled person.
[…] The determination of the proliferation was carried out using the Cell Proliferation ELISA, BrdU (Roche 11 647 229 001): 24 hours after incubation of the cells with the inhibitor BrdU was added. The colorimetric development of the test was made after further 48 hours according to manufacturer's information. The extinction was measured at 450 nm. For determination of the metabolic activity using the EZ4U-Assay (Biomedica B1-5000) the tetrazolium substrate was added to the cells 48 hours after addition of the inhibitor. The capacity for reaction of the cells was measured every hour over a period of 4 hours at 450 nm against a reference filter of 630 nm. DMEM without inhibitor was added as reference in both experiments, as positive control cycloheximide (2.5 μg/ml) and camptothecin (0.2 μg/ml).

[2] = test system: CaCo2 (human colon carcinoma-cell line); assay: Cytotoxicity: metabolic activity, EZ4U-Assay, CaCo2; assay type: cell-based
Procedure: as §1
After one hour the inhibitors A63 (ZED1227), A29 (ZED1098) and A61 (ZED1219) were added in the concentrations 0.1 μM to 1 μM. The determination of the proliferation was carried out using the Cell Proliferation ELISA, BrdU (Roche 11 647 229 001): 24 hours after incubation of the cells with the inhibitor BrdU was added. The colorimetric development of the test was made after further 48 hours according to manufacturer's information. The extinction was measured at 450 nm. For determination of the metabolic activity using the EZ4U-Assay (Biomedica B1-5000) the tetrazolium substrate was added to the cells 48 hours after addition of the inhibitor. The capacity for reaction of the cells was measured every hour over a period of 4 hours at 450 nm against a reference filter of 630 nm. DMEM without inhibitor was added as reference in both experiments, as positive control cycloheximide (2.5 μg/ml) and camptothecin (0.2 μg/ml).

Row | IC50 (TG1 (transglutaminase 1)) [µM] | SMILES | effect on metabolic activity (EZ4U) [1] | effect on metabolic activity (EZ4U) [2]
1 | 96 | CCOC(=O)/C=C/CC[C@H](NC(=O)c1cncn1C)C(=O)Nc1cccn(CC(=O)NCCC(C)C)c1=O [A19, (S,E)-Ethyl 7-(1-(2-(isopentylamino)-2-oxoethyl)-2-oxo-1,2-dihydropyridin-3-ylamino)-6-(1-methyl-1H-imidazole-5-carboxamido)-7-oxohept-2-enoate] | – | –
2 | 68.9 | CCOC(=O)/C=C/CC[C@H](NC(=O)c1cncn1C)C(=O)Nc1cccn(CC(=O)N[C@H](C(=O)O)[C@H](C)CC)c1=O [A53, (2S,3R)-2-(2-(3-((S,E)-7-Ethoxy-2-(1-methyl-1H-imidazole-5-carboxamido)-7-oxohept-5-enamido)-2-oxopyridin-1(2H)-yl)acetamido)-3-methylpentanoic acid] | – | –
3 | 51.8 | CCC(CC)CNC(=O)Cn1cccc(NC(=O)[C@H](CC/C=C/C(=O)OC)NC(=O)c2cncn2C)c1=O [A63, (S,E)-Methyl 7-(1-(2-(2-ethylbutylamino)-2-oxoethyl)-2-oxo-1,2-dihydropyridin-3-ylamino)-6-(1-methyl-1H-imidazole-5-carboxamido)-7-oxohept-2-enoate] | no effect | no effect
4 | 31.1 | CC[C@@H](C)[C@H](NC(=O)Cn1cccc(NC(=O)[C@H](CC/C=C/C(=O)OC)NC(=O)c2cncn2C)c1=O)C(=O)O [A60, (2S,3R)-2-(2-(3-((S,E)-7-Methoxy-2-(1-methyl-1H-imidazole-5-carboxamido)-7-oxohept-5-enamido)-2-oxopyridin-1(2H)-yl)acetamido)-3-methylpentanoic acid] | – | –
5 | 15.3 | CC[C@@H](C)[C@H](NC(=O)Cn1cccc(NC(=O)[C@H](CC/C=C/C(=O)OC)NC(=O)c2ccccc2)c1=O)C(=O)O [A61, (2S,3R)-2-(2-(3-((S,E)-2-benzamido-7-methoxy-7-oxohept-5-enamido)-2-oxopyridin-1(2H)-yl)acetamido)-3-methylpentanoic acid] | no effect | no effect
6 | 97.5 | CCOC(=O)/C=C/CC[C@H](NC(=O)c1cncn1C)C(=O)Nc1cccn(CC(=O)NCC(CC)CC)c1=O [A58, (S,E)-Ethyl 7-(1-(2-(2-ethylbutylamino)-2-oxoethyl)-2-oxo-1,2-dihydropyridin-3-ylamino)-6-(1-methyl-1H-imidazole-5-carboxamido)-7-oxohept-2-enoate] | – | –
7 | 37.1 | CCOC(=O)/C=C/CC[C@H](NC(=O)c1ccccc1)C(=O)Nc1cccn(CC(=O)N[C@H](C(=O)O)[C@H](C)CC)c1=O [A59, (2S,3R)-2-(2-(3-((S,E)-2-Benzamido-7-ethoxy-7-oxohept-5-enamido)-2-oxopyridin-1(2H)-yl)acetamido)-3-methylpentanoic acid] | – | –

Further lines, the compound ahead of its results:

Row | SMILES | IC50 (TG1 (transglutaminase 1)) [µM] | effect on metabolic activity (EZ4U) [1] | effect on metabolic activity (EZ4U) [2]
8 | CCOC(=O)/C=C/CC[C@H](NC(C)=O)C(=O)Nc1cccn(CC(=O)NCCC(C)C)c1=O [A7, (S,E)-Ethyl 6-acetamido-7-(1-(2-(isopentylamino)-2-oxoethyl)-2-oxo-1,2-dihydropyridin-3-ylamino)-7-oxohept-2-enoate] | 28.8 | – | –
9 | CCOC(=O)/C=C/CC[C@H](NC(=O)CCC(=O)O)C(=O)Nc1cccn(CC(=O)NCC(CC)CC)c1=O [A30, (S,E)-4-(7-Ethoxy-1-(1-(2-(2-ethylbutylamino)-2-oxoethyl)-2-oxo-1,2-dihydropyridin-3-ylamino)-1,7-dioxohept-5-en-2-ylamino)-4-oxobutanoic acid] | 113 | – | –
10 | CCOC(=O)/C=C/CC[C@H](NC(C)=O)C(=O)Nc1cccn(CC(=O)NCCC(CC)CC)c1=O [A42, (S,E)-ethyl 6-acetamido-7-(1-(2-(3-ethylpentylamino)-2-oxoethyl)-2-oxo-1,2-dihydropyridin-3-ylamino)-7-oxohept-2-enoate] | 86 | – | –
11 | CCOC(=O)/C=C/CC[C@H](NC(=O)CCC(=O)O)C(=O)Nc1cccn(CC(=O)NCCC(C)C)c1=O [A24, (S,E)-4-(7-Ethoxy-1-(1-(2-(isopentylamino)-2-oxoethyl)-2-oxo-1,2-dihydropyridin-3-ylamino)-1,7-dioxohept-5-en-2-ylamino)-4-oxobutanoic acid] | 91.9 | – | –
12 | CCOC(=O)/C=C/CC[C@H](NC(C)=O)C(=O)Nc1cccn(CC(=O)NCC(CC)CC)c1=O [A62, (S,E)-Ethyl 6-acetamido-7-(1-(2-(2-ethylbutylamino)-2-oxoethyl)-2-oxo-1,2-dihydropyridin-3-ylamino)-7-oxohept-2-enoate] | 133 | – | –
13 | COC(=O)/C=C/CC[C@H](NC(C)=O)C(=O)Nc1cccn(CC(=O)NCCC(C)C)c1=O [A29, (S,E)-methyl 6-acetamido-7-(1-(2-(isopentylamino)-2-oxoethyl)-2-oxo-1,2-dihydropyridin-3-ylamino)-7-oxohept-2-enoate] | 28.1 | no effect | no effect
14 | CCOC(=O)/C=C/CC[C@H](NC(C)=O)C(=O)Nc1cccn(CC(=O)N[C@H](C(=O)OC)[C@H](C)CC)c1=O [A35, (S,E)-ethyl 6-acetamido-7-(1-(2-((2S,3R)-1-methoxy-3-methyl-1-oxopentan-2-ylamino)-2-oxoethyl)-2-oxo-1,2-dihydropyridin-3-ylamino)-7-oxohept-2-enoate] | 87.1 | – | –
15 | COC(=O)/C=C/CC[C@H](NC(C)=O)C(=O)Nc1cccn(CC(=O)N2CCCC(C)C2)c1=O (stereo partly drawn) [A64, (6S,E)-Methyl 6-acetamido-7-(1-(2-(3-methylpipendin-1-yl)-2-oxoethyl)-2-oxo-1,2-dihydropyridin-3-ylamino)-7-oxohept-2-enoate] | 122 | – | –
16 | COC(=O)/C=C/CC[C@H](NC(C)=O)C(=O)Nc1cccn(CC(=O)N2CCC(C(F)(F)F)CC2)c1=O [A65, (S,E)-Methyl 6-acetamido-7-oxo-7-(2-oxo-1-(2-oxo-2-(4-(trifluoromethyl)piperidin-1-yl)ethyl)-1,2-dihydropyridin-3-ylamino)hept-2-enoate] | 120 | – | –
17 | CCC(CC)CNC(=O)Cn1cccc(NC(=O)[C@H](CC/C=C/C(=O)OC)NC(C)=O)c1=O [A79, (S,E)-Methyl 6-acetamido-7-(1-(2-(2-ethylbutylamino)-2-oxoethyl)-2-oxo-1,2-dihydropyridin-3-ylamino)-7-oxohept-2-enoate] | 80.7 | – | –
